According to patent US20210134398A1, “Combinatorial Chemistry Computational System and Enhanced Selection Method” (Southern Methodist University, priority 2019, published 2021):
“Also recorded” adds a separate entry of the source.

How the values were obtained:
[1] = biological target: T1, Cysteineless Mouse MDR3 P-glycoprotein (Mus musculus, UniProt P21447, C1070A/C1121A/C1223A/C133A/C427A/C638A/C669A/C713A/C952A); test: ATPase activity assay (basal and verapamil-stimulated), purified P-gp in mixed micelles; format: biochemical; conditions: for Effect on stimulated ATPase / Stimulated ATPase: in the presence of verapamil; for Stimulated ATPase / Basal ATPase: ± standard deviation; for Effect on basal ATPase / Basal ATPase: no added transport substrate
T1 construct: made in house; host or cells: Pichia pastoris
Procedure: Evaluation of mode of inhibition of P-glycoprotein by Group 1 and Group 2 variants of compound 29. To assess the mode of inhibition of P-gp by the novel variants of P-gp inhibitor 29, ATP hydrolysis by P-gp was evaluated in the presence or absence of the variants. […] Murine P-gp (MDR3) expressed in Pichia pastoris that had all naturally occurring cysteines replaced with alanine, was used^45, 46. It is widely assumed that the ATP hydrolytic rate of P-gp is stimulated in the presence of transport substrates when compared to ATP hydrolysis in the absence of transport substrates. Assays comparing these rates can therefore be useful not only in identifying inhibitors of P-gp catalyzed ATP hydrolysis, but also to potentially infer whether a compound might be a transport substrate if basal ATPase rates are stimulated by the addition of a compound.
P-glycoprotein Purification. Cysteine-less MDR3 and the human normal MDR1 P-glycoprotein was recombinantly expressed in the yeast Pichia pastoris essentially as in^45, 46 and used for assaying ATP hydrolysis and ATP binding to the protein in the presence of the 29-variants. Purification of the protein was performed as described^49 with small modifications resulting in highly enriched P-gp in mixed micelles containing dodecyl maltoside (DDM) and lysophosphatidyl choline^26.
ATPase Activity Assays. ATP hydrolysis activity was measured using a coupled enzyme assay^72 as modified in reference^26.

[2] = biological target: T2, cysteineless mouse P-glycoprotein (Mus musculus, UniProt P21447, C1070A/C1121A/C1223A/C133A/C427A/C638A/C669A/C713A/C952A); test: SL-ATP (spin-labeled ATP analog) binding titration by ESR; conditions: for Maximum ATP binding: in the presence of the compound, ± standard deviation
T2 construct: made in house; host or cells: Pichia pastoris
Procedure: Effects of 29 variants on binding of an ATP-analog to purified P-glycoprotein. ATP binding in the presence of the 29 variants was assessed in titration assays using a spin-labeled analog of ATP, 2′,3′-SL-ATP (2′,3′-(2,2,5,5,-tetramethyl-3-pyrroline-1-oxyl-3-carboxylic acid ester) ATP; (2′,3′ indicates a rapid equilibrium of the ester bond between the C2′ and C3′ of the ribose moiety))^48-50, and electron spin resonance spectroscopy as described in^26. Due to the lower stability of the human P-glycoprotein in the extended times needed for these experiments, the cysteineless mouse protein was used here. The goal was to assess whether binding of the 29 variants to P-gp affected nucleotide binding to the protein.
ESR Measurements. ESR measurements were as described in^26. The amount of protein-bound spin-labeled (SL) adenine nucleotide was determined as the difference between the known total concentration of SL-ATP (2′,3′-(2,2,5,5,-tetramethyl-3-pyrroline-1-oxyl-3-carboxylic acid ester) —ATP^48) added and the free spin-labeled nucleotide (SL-ANP) observed in the experiment. Hyperbolic curve fitting of the results was performed using GraphPad Prism 7 to determine maximum binding and apparent affinity for the spin-labeled nucleotide. The equation used for the fitting the curves was […], where P1 corresponds to the maximum binding of SL-ANP (moles of SL-ANP bound per mole P-gp), and P2 equals the apparent dissociation constant for SL-ANP. To quantify the amount of free SL-ANP, standard curves were established where the signal amplitude of the high field signal of the ESR spectra of free SL-ANP in the absence of protein was correlated to the concentration of SL-ANP added. All ESR measurements were performed using a Bruker EMX 6/1 ESR spectrophotometer operating in X-band mode and equipped with a high sensitivity cavity. Spectra were acquired at a microwave frequency of 9.33 GHz, microwave power of 12.63 mW, 100 kHz modulation frequency and a resolution of 1024 points. The centerfield of the scan was at 3325 G and an area of 100 G was scanned. The peak to peak modulation amplitude was 1G and the time constant was set to 10.240 ms. The conversion time was 163.84 ms, resulting in a total time sweep of 167.772 s. The signal gain was adjusted for the SL-ATP concentrations in the different experiments.

[3] = biological target: T3, P-gp-catalyzed transport of calcein AM in DU145TXR cells (Homo sapiens, UniProt P08183); test: Calcein AM accumulation assay; format: cell-based; conditions: after 6-hour pre-incubation, compared to parental 29
T3 construct: DU145 human prostate cancer cells^52 as well as the multidrug resistant sub-line, DU145TXR; endogenous in cells; host or cells: DU145TXR (paclitaxel-selected sub-line of human DU145 prostate cancer cells)
Procedure: Accumulation and cellular retention of calcein AM in P-gp overexpressing prostate cancer cells upon incubation with Group 1 SMU-29 variants. Calcein AM accumulation assays have been used by us previously to evaluate P-gp-substrate accumulation in real time in the presence or absence of P-gp inhibitors^28. For these assays, P-gp overexpressing DU145TXR cells were incubated with the respective inhibitors in the presence of the P-gp substrate, calcein AM. Inhibition of P-gp leads to cellular accumulation of calcein AM and to cleavage of its acetoxymethyl ester groups, resulting in the generation of the highly fluorescent compound, calcein. The anionic calcein is not a substrate of P-gp and remains in the cells. In these assays, the relative fluorescence of cellular calcein was measured over time and the results of these assays are shown in FIG. 13A. […]
Calcein AM assay. To assess inhibition of P-gp-catalyzed transport of the P-gp pump substrate, calcein AM, DU145TXR cells were seeded in 96 wells plates and allowed to grow in complete medium until confluency was reached. Medium was removed, and cells were treated […] P-gp inhibitory compounds and 1 μg/mL calcein AM (Life Technologies, OR) and diluted into phenol red free RPMI 1640 media. To study the effect of pre-incubation of compounds, cells were treated with just P-gp inhibitory compounds and incubated at 37° C. for six hours before adding calcein AM. Fluorescence excitation at 485 nm with a 20 nm gate and at emission at 535 nm with a 20 nm gate was measured using a BioTek Cytation 5 imaging multi-mode reader (Bio-Tek, Winooski, Vt.) over 60 minutes in 20 minute intervals. DMSO was used as vehicle. Results were plotted as the mean with standard deviation (SD) of six replicates per concentration and are representative of at least two independent experiments.

[4] = biological target: T3, P-gp-catalyzed transport of calcein AM in DU145TXR cells; test: Calcein AM accumulation assay; format: cell-based; conditions: without pre-incubation, compared to parental 29; 5 μM stated for Group 2

T3 sequence (P08183 whole entry): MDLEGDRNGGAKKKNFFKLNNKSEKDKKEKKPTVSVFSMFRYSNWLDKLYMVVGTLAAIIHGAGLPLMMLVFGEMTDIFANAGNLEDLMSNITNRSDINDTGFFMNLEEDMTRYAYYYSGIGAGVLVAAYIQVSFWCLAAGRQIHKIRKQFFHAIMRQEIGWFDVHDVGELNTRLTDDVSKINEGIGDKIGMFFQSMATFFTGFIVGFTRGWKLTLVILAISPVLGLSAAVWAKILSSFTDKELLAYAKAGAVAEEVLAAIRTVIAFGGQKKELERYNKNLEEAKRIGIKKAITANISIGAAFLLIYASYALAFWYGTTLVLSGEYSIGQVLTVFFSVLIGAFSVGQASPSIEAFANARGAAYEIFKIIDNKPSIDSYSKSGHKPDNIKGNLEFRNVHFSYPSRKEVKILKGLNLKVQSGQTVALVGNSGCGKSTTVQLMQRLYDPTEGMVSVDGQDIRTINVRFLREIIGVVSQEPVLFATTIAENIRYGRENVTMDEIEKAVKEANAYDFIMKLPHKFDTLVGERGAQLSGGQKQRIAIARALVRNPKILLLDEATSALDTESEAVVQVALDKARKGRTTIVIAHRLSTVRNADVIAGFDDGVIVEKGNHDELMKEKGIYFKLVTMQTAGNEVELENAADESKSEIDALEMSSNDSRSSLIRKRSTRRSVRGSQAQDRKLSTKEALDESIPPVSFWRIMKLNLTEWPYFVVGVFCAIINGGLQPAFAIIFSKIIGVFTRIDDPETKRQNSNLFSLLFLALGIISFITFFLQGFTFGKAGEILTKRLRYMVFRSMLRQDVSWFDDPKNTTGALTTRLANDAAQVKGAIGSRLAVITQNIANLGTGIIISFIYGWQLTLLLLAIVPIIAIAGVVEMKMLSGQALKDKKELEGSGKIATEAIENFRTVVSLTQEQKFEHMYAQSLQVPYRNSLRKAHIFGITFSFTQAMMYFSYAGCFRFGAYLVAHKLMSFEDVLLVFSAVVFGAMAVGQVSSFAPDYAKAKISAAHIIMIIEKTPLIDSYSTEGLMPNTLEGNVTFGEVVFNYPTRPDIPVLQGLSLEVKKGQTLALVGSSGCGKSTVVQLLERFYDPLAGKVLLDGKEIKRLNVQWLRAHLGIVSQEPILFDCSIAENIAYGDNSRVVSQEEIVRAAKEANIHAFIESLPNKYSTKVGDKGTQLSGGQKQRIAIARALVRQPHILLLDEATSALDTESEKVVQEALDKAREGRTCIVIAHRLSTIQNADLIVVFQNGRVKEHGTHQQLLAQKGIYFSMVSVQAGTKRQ
T1 sequence (P21447 whole entry C133A/C427A/C638A/C669A/C713A/C952A/C1070A/C1121A/C1223A): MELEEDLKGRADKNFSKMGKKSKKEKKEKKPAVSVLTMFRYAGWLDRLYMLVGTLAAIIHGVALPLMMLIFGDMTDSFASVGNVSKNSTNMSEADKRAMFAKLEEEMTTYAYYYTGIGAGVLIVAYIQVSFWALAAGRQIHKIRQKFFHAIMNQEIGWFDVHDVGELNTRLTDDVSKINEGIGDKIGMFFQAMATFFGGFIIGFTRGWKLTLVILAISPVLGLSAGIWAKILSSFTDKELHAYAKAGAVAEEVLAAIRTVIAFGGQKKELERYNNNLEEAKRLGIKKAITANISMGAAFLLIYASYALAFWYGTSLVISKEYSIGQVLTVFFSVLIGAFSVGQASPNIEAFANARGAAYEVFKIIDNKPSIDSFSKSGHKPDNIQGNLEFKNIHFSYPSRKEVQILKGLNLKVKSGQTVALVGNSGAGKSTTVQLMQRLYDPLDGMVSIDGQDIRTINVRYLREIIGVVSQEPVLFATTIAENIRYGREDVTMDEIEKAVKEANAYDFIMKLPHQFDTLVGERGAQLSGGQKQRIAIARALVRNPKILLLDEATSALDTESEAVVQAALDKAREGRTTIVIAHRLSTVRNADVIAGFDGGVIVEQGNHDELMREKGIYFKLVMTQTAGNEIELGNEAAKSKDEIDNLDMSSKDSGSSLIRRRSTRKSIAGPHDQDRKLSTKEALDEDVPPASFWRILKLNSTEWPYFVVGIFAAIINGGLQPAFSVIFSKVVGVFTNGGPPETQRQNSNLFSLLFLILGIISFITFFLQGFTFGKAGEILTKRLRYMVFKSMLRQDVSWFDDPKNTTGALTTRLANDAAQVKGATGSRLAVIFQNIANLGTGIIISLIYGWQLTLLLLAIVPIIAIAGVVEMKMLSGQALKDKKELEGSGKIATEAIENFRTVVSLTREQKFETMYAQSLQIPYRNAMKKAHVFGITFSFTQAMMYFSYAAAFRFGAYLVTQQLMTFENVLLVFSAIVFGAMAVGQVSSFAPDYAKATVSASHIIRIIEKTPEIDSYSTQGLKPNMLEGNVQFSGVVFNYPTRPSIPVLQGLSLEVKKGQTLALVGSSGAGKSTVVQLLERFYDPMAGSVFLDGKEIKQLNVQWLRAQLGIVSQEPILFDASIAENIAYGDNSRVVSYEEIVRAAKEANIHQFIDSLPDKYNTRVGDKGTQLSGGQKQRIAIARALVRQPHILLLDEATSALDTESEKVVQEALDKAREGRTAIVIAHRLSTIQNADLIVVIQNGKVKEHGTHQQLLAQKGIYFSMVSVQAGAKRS
T2 sequence (P21447 whole entry C133A/C427A/C638A/C669A/C713A/C952A/C1070A/C1121A/C1223A): as above

Row | Compound | Stimulated ATPase [1] | Basal ATPase [1] | Effect on SL-ANP binding [2] | Calcein accumulation in DU145TXR (in words) [3] | Maximum ATP binding [2] [mol SL-ANP bound/mol P-gp] | Calcein accumulation in DU145TXR (in words) [4] | also measured
1 | Cc1cc(C)c(-c2cc(NC(=O)CSCC(=O)NC34CC5CC(CC(C5)C3)C4)n(-c3ccccc3)n2)cc1C [29-278, 2-({[(adamantan-1-yl)carbamoyl]methyl}sulfanyl)-N-[1-phenyl-3-(2,4,5-trimethylphenyl)-1H-pyrazol-5-yl]acetamide] | 41 ± 7 % of DMSO | 78 ± 4 % of DMSO | yes | increased calcein accumulation | – | less calcein accumulation than the parental compound | Effect on stimulated ATPase ([1]; listed as 278): inhibited verapamil-stimulated ATPase activity; Effect on stimulated ATPase ([1]; listed as SMU29-278): inhibitor; Effect on basal ATPase ([1]; listed as 278): inhibited; Effect on basal ATPase ([1]; listed as SMU29-278): inhibitor; Maximum ATP binding ([2]; listed as 278): about 1 mol SL-ANP bound/mol P-gp; Maximum ATP binding ([2]; listed as SMU29-278): 1.3 ± 0.1 mol SL-ANP bound/mol P-gp; Calcein accumulation in DU145TXR (in words) ([3]; listed as 278): comparable to 29
2 | Cc1cc(C)c(-c2cc(NC(=O)CSCC(=O)Nc3ccc4ccccc4c3)n(-c3ccccc3)n2)cc1C [29-231, 2-({[(naphthalen-2-yl)carbamoyl]methyl}sulfanyl)-N-[1-phenyl-3-(2,4,5-trimethylphenyl)-1H-pyrazol-5-yl]acetamide] | 141 ± 18 % of DMSO | 70 ± 0 % of DMSO | marginally | – | 1.8 ± 0.1 | – | Effect on stimulated ATPase ([1]; listed as 231): slightly stimulated; Effect on stimulated ATPase ([1]; listed as SMU26-231): stimulator; Effect on basal ATPase ([1]; listed as SMU26-231): inhibitor
3 | 2-{[2-(9H-flouoren-2-yl)-2-oxoethyl]}-N-[1-phenyl-3-(2,4,5-trimethylphenyl0-1H-pyrazol-5-yl]acetamide [29-216] | 108 ± 2 % of DMSO | 105 ± 7 % of DMSO | no | – | 1.7 ± 0.1 | – | Effect on stimulated ATPase ([1]; listed as 216): did not affect; also recorded: little effect; Effect on stimulated ATPase ([1]; listed as SMU29-216): none; Effect on basal ATPase ([1]; listed as 216): did not significantly affect; also recorded: did not activate; Effect on basal ATPase ([1]; listed as SMU29-216): none
4 | Cc1cc(C)c(-c2cc(NC(=O)CSCC(=O)N3c4ccccc4CCc4ccccc43)n(-c3ccccc3)n2)cc1C [29-227, 2-[(2-{2-azatricyclo[9.4.0.0]pentadeca-1(11),3(8},4,6,12,14-hexaen-2-yl)-2-oxoethyl)sulfanyl]-N-[1-phenyl-3-(2,4,5-trimethylphenyl)-1H-pyrazol-5-yl]acetamide] | 50 ± 2 % of DMSO | 88 ± 4 % of DMSO | no | – | 1.8 ± 0.1 | – | Effect on stimulated ATPase ([1]; listed as 227): inhibited activity similar to parental compound 29; also recorded: inhibited verapamil-stimulated ATPase activity; Effect on stimulated ATPase ([1]; listed as SMU29-227): inhibitor; Effect on basal ATPase ([1]; listed as 227): did not significantly affect; also recorded: did not activate; Effect on basal ATPase ([1]; listed as SMU29-227): none

Further lines, with some results ahead:

Row | Stimulated ATPase [1] | Basal ATPase [1] | Effect on SL-ANP binding [2] | Calcein accumulation in DU145TXR (in words) [3] | Maximum ATP binding [2] [mol SL-ANP bound/mol P-gp] | Compound | Calcein accumulation in DU145TXR (in words) [4] | also measured
5 | 62 ± 5 % of DMSO | 150 ± 6 % of DMSO | no | equivalent to 29 in efficacy | 1.7 ± 0.1 | Cc1cc(C)c(-c2cc(NC(=O)CSc3cccc(NC(=O)c4cncc(Br)c4)c3)n(-c3ccccc3)n2)cc1C [29-551, 5-bromo-N-(3-((2-oxo-2-((1-phenyl-3-(2,4,5-trimethylphenyl)-1H-pyrazol-5-yl)amino)ethyl)thio)phenyl)nicotinamide] | marginally higher calcein accumulation than parental compound 29 | Effect on stimulated ATPase ([1]; listed as 551): inhibited activity similar to parental compound 29; also recorded: inhibited verapamil-stimulated ATPase activity; Effect on stimulated ATPase ([1]; listed as SMU29-551): inhibitor; Effect on basal ATPase ([1]; listed as 551): stimulated basal ATPase activity; Effect on basal ATPase ([1]; listed as SMU29-551): stimulator
6 | 98 ± 2 % of DMSO | 143 ± 32 % of DMSO | no | comparable to 29 | 1.9 ± 0.1 | Cc1cc(C)c(-c2cc(NC(=O)CSCC(=O)NCc3ccc(F)cc3)n(-c3ccccc3)n2)cc1C [29-286] | comparable to 29 | Effect on stimulated ATPase ([1]; listed as 286): no significant effect; also recorded: little effect; Effect on stimulated ATPase ([1]; listed as SMU29-286): none; Effect on basal ATPase ([1]; listed as 286): only marginally or with no statistical significance; Effect on basal ATPase ([1]; listed as SMU29-286): none
7 | 49 ± 2 % of DMSO | 95 ± 11 % of DMSO | – | – | – | Cc1cc(C)c(-c2cc(NC(=O)CSc3nnc(C4CC4)[nH]3)n(-c3ccccc3)n2)cc1C [compound 29, reference compound] | – | Effect on stimulated ATPase [1]: inhibitor; Effect on basal ATPase [1]: none
